{
  "source": "PubChem BioAssay (NCI)",
  "assay_in_all_cases": "NCI anticancer screen, dose series, 48 h",
  "key": {"A498 renal": {"test_system": "A498 renal"}, "A549 NSCLC": {"test_system": "A549 NSCLC"}, "BT-549 breast": {"test_system": "BT-549 breast"}, "CAKI-1 renal": {"test_system": "CAKI-1 renal"}, "CCRF-CEM leukemia": {"test_system": "CCRF-CEM leukemia"}, "DU-145 prostate": {"test_system": "DU-145 prostate"}, "EKVX NSCLC": {"test_system": "EKVX NSCLC"}, "HCC-2998 colon": {"test_system": "HCC-2998 colon"}, "HCT-116 colon": {"test_system": "HCT-116 colon"}, "HL-60(TB) leukemia": {"test_system": "HL-60(TB) leukemia"}, "HOP-62 NSCLC": {"test_system": "HOP-62 NSCLC"}, "HOP-92 NSCLC": {"test_system": "HOP-92 NSCLC"}, "HS 578T breast": {"test_system": "HS 578T breast"}, "HT29 colon": {"test_system": "HT29 colon"}, "IGROV1 ovarian": {"test_system": "IGROV1 ovarian"}, "K-562 leukemia": {"test_system": "K-562 leukemia"}, "LOX IMVI melanoma": {"test_system": "LOX IMVI melanoma"}, "M14 melanoma": {"test_system": "M14 melanoma"}, "MALME-3M melanoma": {"test_system": "MALME-3M melanoma"}, "MCF7 breast": {"test_system": "MCF7 breast"}, "MDA-MB-231 breast": {"test_system": "MDA-MB-231 breast"}, "MDA-MB-468 breast": {"test_system": "MDA-MB-468 breast"}, "MOLT-4 leukemia": {"test_system": "MOLT-4 leukemia"}, "NCI-H226 lung": {"test_system": "NCI-H226 lung"}, "NCI-H23 lung": {"test_system": "NCI-H23 lung"}, "OVCAR-4 ovarian": {"test_system": "OVCAR-4 ovarian"}, "PC-3 prostate": {"test_system": "PC-3 prostate"}, "RPMI-8226 leukemia": {"test_system": "RPMI-8226 leukemia"}, "RXF 393 renal": {"test_system": "RXF 393 renal"}, "SF-268 CNS": {"test_system": "SF-268 CNS"}, "SF-295 CNS": {"test_system": "SF-295 CNS"}, "SK-MEL-2 melanoma": {"test_system": "SK-MEL-2 melanoma"}, "SK-MEL-5 melanoma": {"test_system": "SK-MEL-5 melanoma"}, "SK-OV-3 ovarian": {"test_system": "SK-OV-3 ovarian"}, "SN12C renal": {"test_system": "SN12C renal"}, "SNB-75 CNS": {"test_system": "SNB-75 CNS"}, "SR leukemia": {"test_system": "SR leukemia"}, "T-47D breast": {"test_system": "T-47D breast"}, "TK-10 renal": {"test_system": "TK-10 renal"}, "UACC-257 melanoma": {"test_system": "UACC-257 melanoma"}, "UACC-62 melanoma": {"test_system": "UACC-62 melanoma"}},
  "note": "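How tested: cells in 96-well plates exposed to compound for 48 hours at five concentrations. GI50 marks 50% less growth. The concentration for full growth arrest is given as TGI.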",
  "data": [
    {"smiles": "O=C(/C=C/c1ccc(F)cc1)c1nc2ccccc2n1Cc1ccc(F)cc1", "values": [
      {"measurement": "GI50", "setting": "A498 renal", "value": "> 100", "unit": "µM"},
      {"measurement": "TGI", "setting": "A498 renal", "value": "> 100", "unit": "µM"},
      {"measurement": "GI50", "setting": "A549 NSCLC", "value": 3.92, "unit": "µM"},
      {"measurement": "TGI", "setting": "A549 NSCLC", "value": "> 100", "unit": "µM"},
      {"measurement": "GI50", "setting": "BT-549 breast", "value": 2.6, "unit": "µM"},
      {"measurement": "TGI", "setting": "BT-549 breast", "value": 8.56, "unit": "µM"},
      {"measurement": "GI50", "setting": "CAKI-1 renal", "value": 2.26, "unit": "µM"},
      {"measurement": "TGI", "setting": "CAKI-1 renal", "value": "> 100", "unit": "µM"},
      {"measurement": "GI50", "setting": "CCRF-CEM leukemia", "value": 2.26, "unit": "µM"},
      {"measurement": "TGI", "setting": "CCRF-CEM leukemia", "value": 7.46, "unit": "µM"},
      {"measurement": "GI50", "setting": "DU-145 prostate", "value": 3.48, "unit": "µM"},
      {"measurement": "TGI", "setting": "DU-145 prostate", "value": "> 100", "unit": "µM"},
      {"measurement": "GI50", "setting": "EKVX NSCLC", "value": 3.48, "unit": "µM"},
      {"measurement": "TGI", "setting": "EKVX NSCLC", "value": "> 100", "unit": "µM"},
      {"measurement": "GI50", "setting": "HCC-2998 colon", "value": 2.1, "unit": "µM"},
      {"measurement": "TGI", "setting": "HCC-2998 colon", "value": 4.71, "unit": "µM"},
      {"measurement": "GI50", "setting": "HCT-116 colon", "value": 1.86, "unit": "µM"},
      {"measurement": "TGI", "setting": "HCT-116 colon", "value": 4.46, "unit": "µM"},
      {"measurement": "GI50", "setting": "HL-60(TB) leukemia", "value": 1.73, "unit": "µM"},
      {"measurement": "TGI", "setting": "HL-60(TB) leukemia", "value": 4.81, "unit": "µM"},
      {"measurement": "GI50", "setting": "HOP-62 NSCLC", "value": 3.2, "unit": "µM"},
      {"measurement": "TGI", "setting": "HOP-62 NSCLC", "value": 17.6, "unit": "µM"},
      {"measurement": "GI50", "setting": "HOP-92 NSCLC", "value": 2.56, "unit": "µM"},
      {"measurement": "TGI", "setting": "HOP-92 NSCLC", "value": 57.9, "unit": "µM"},
      {"measurement": "GI50", "setting": "HS 578T breast", "value": 2.58, "unit": "µM"},
      {"measurement": "TGI", "setting": "HS 578T breast", "value": 20.4, "unit": "µM"},
      {"measurement": "GI50", "setting": "HT29 colon", "value": 2.33, "unit": "µM"},
      {"measurement": "TGI", "setting": "HT29 colon", "value": 4.93, "unit": "µM"},
      {"measurement": "GI50", "setting": "IGROV1 ovarian", "value": 3.03, "unit": "µM"},
      {"measurement": "TGI", "setting": "IGROV1 ovarian", "value": "> 100", "unit": "µM"},
      {"measurement": "GI50", "setting": "K-562 leukemia", "value": 2.68, "unit": "µM"},
      {"measurement": "TGI", "setting": "K-562 leukemia", "value": "> 100", "unit": "µM"},
      {"measurement": "GI50", "setting": "LOX IMVI melanoma", "value": 1.56, "unit": "µM"},
      {"measurement": "TGI", "setting": "LOX IMVI melanoma", "value": 3.08, "unit": "µM"},
      {"measurement": "GI50", "setting": "M14 melanoma", "value": 2.82, "unit": "µM"},
      {"measurement": "TGI", "setting": "M14 melanoma", "value": "> 100", "unit": "µM"},
      {"measurement": "GI50", "setting": "MALME-3M melanoma", "value": 2.61, "unit": "µM"},
      {"measurement": "TGI", "setting": "MALME-3M melanoma", "value": 9.59, "unit": "µM"},
      {"measurement": "GI50", "setting": "MCF7 breast", "value": 1.62, "unit": "µM"},
      {"measurement": "TGI", "setting": "MCF7 breast", "value": "> 100", "unit": "µM"},
      {"measurement": "GI50", "setting": "MDA-MB-231 breast", "value": 2.25, "unit": "µM"},
      {"measurement": "TGI", "setting": "MDA-MB-231 breast", "value": 5.59, "unit": "µM"},
      {"measurement": "GI50", "setting": "MDA-MB-468 breast", "value": 2.19, "unit": "µM"},
      {"measurement": "TGI", "setting": "MDA-MB-468 breast", "value": 6.05, "unit": "µM"},
      {"measurement": "GI50", "setting": "MOLT-4 leukemia", "value": 2.06, "unit": "µM"},
      {"measurement": "TGI", "setting": "MOLT-4 leukemia", "value": 6.04, "unit": "µM"},
      {"measurement": "GI50", "setting": "NCI-H226 lung", "value": 5.79, "unit": "µM"},
      {"measurement": "TGI", "setting": "NCI-H226 lung", "value": "> 100", "unit": "µM"},
      {"measurement": "GI50", "setting": "NCI-H23 lung", "value": 2.88, "unit": "µM"},
      {"measurement": "TGI", "setting": "NCI-H23 lung", "value": 14.1, "unit": "µM"},
      {"measurement": "GI50", "setting": "OVCAR-4 ovarian", "value": 4.3, "unit": "µM"},
      {"measurement": "TGI", "setting": "OVCAR-4 ovarian", "value": "> 100", "unit": "µM"},
      {"measurement": "GI50", "setting": "PC-3 prostate", "value": 3.63, "unit": "µM"},
      {"measurement": "TGI", "setting": "PC-3 prostate", "value": "> 100", "unit": "µM"},
      {"measurement": "GI50", "setting": "RPMI-8226 leukemia", "value": 1.86, "unit": "µM"},
      {"measurement": "TGI", "setting": "RPMI-8226 leukemia", "value": 5.03, "unit": "µM"},
      {"measurement": "GI50", "setting": "RXF 393 renal", "value": 1.59, "unit": "µM"},
      {"measurement": "TGI", "setting": "RXF 393 renal", "value": 3.4, "unit": "µM"},
      {"measurement": "GI50", "setting": "SF-268 CNS", "value": 3.33, "unit": "µM"},
      {"measurement": "TGI", "setting": "SF-268 CNS", "value": "> 100", "unit": "µM"},
      {"measurement": "GI50", "setting": "SF-295 CNS", "value": 2.59, "unit": "µM"},
      {"measurement": "TGI", "setting": "SF-295 CNS", "value": 8.27, "unit": "µM"},
      {"measurement": "GI50", "setting": "SK-MEL-2 melanoma", "value": 2.35, "unit": "µM"},
      {"measurement": "TGI", "setting": "SK-MEL-2 melanoma", "value": 6.17, "unit": "µM"},
      {"measurement": "GI50", "setting": "SK-MEL-5 melanoma", "value": 2.63, "unit": "µM"},
      {"measurement": "TGI", "setting": "SK-MEL-5 melanoma", "value": 9.85, "unit": "µM"},
      {"measurement": "GI50", "setting": "SK-OV-3 ovarian", "value": 15.5, "unit": "µM"},
      {"measurement": "TGI", "setting": "SK-OV-3 ovarian", "value": "> 100", "unit": "µM"},
      {"measurement": "GI50", "setting": "SN12C renal", "value": 3.64, "unit": "µM"},
      {"measurement": "TGI", "setting": "SN12C renal", "value": "> 100", "unit": "µM"},
      {"measurement": "GI50", "setting": "SNB-75 CNS", "value": 1.11, "unit": "µM"},
      {"measurement": "TGI", "setting": "SNB-75 CNS", "value": 6.44, "unit": "µM"},
      {"measurement": "GI50", "setting": "SR leukemia", "value": 1.86, "unit": "µM"},
      {"measurement": "TGI", "setting": "SR leukemia", "value": 6.01, "unit": "µM"},
      {"measurement": "GI50", "setting": "T-47D breast", "value": 3.13, "unit": "µM"},
      {"measurement": "TGI", "setting": "T-47D breast", "value": "> 100", "unit": "µM"},
      {"measurement": "GI50", "setting": "TK-10 renal", "value": 2.97, "unit": "µM"},
      {"measurement": "TGI", "setting": "TK-10 renal", "value": "> 100", "unit": "µM"},
      {"measurement": "GI50", "setting": "UACC-257 melanoma", "value": 3.1, "unit": "µM"},
      {"measurement": "TGI", "setting": "UACC-257 melanoma", "value": "> 100", "unit": "µM"},
      {"measurement": "GI50", "setting": "UACC-62 melanoma", "value": 2.02, "unit": "µM"},
      {"measurement": "TGI", "setting": "UACC-62 melanoma", "value": 7.09, "unit": "µM"}
    ]}
  ]
}
